Data set [1] has as its system cisplatin-sensitive HCT116 colon cancer cell line. Also on record: method as in PMID 26226326. The conditions noted are these: cited from earlier work.
For data set [2], the system named is cisplatin-resistant HCT116 colon cancer cell line. Further details: method as in PMID 26226326. The note with it: cited from earlier work.
Data set [3] has as its system A2780 ovarian carcinoma cells. As to the kind of experiment: In vitro cytotoxicity testing (MTT assay), A2780. The class given is cell-based, human. As to the method:
(§1) All cell lines were grown as adherent monolayers at 37°C and 5% CO2 in a humidified atmosphere.
(§2) The MTT assay was used to determine the cell viability; MTT = 3-(4,5-dimethylthiazol-2-yl)-2,5-diphenyltetrazolium bromide. A concentration of the formed dye was evaluated spectrophotometrically at 540 nm (TECAN, Schoeller Instruments LLC).
(§3) The data were expressed as the percentage of viability, where 100% and 0% represents the treatments with negative and positive controls, respectively. The data from the cancer cells were acquired from three independent experiments (conducted in triplicate) using cells from different passages. The resulting IC50 values (μM) were calculated from viability curves and the results are presented as arithmetic mean±SD.
(In general: Formazan colour is commonly taken as a measure of viable cells.)

For data set [4], the system named is Caco-2 colorectal carcinoma cells. As to the kind of experiment: In vitro cytotoxicity testing (MTT assay), Caco-2. The format is cell-based, human. The note with it: for IC50: 24 h drug exposure, no recovery, MTT, read-out: IC50±SD, Caco-2; for selectivity factor IC50(Hep)/IC50(cancer cell line): Caco-2. As to the method:
as §1, §2, §3

Data set [5] in a line: Hydrophobicity studies (logP determination), octanol/water, ICP-MS. The note with it: octanol/water (0.2 M KI). The format is physicochemical. The protocol:
Complexes 4 and 6 (1 mmol) were ultrasonicated for 15 min in 10 mL of OSW, centrifuged and supernatants were collected. Aliquots (5 mL) of the obtained OSW solutions of complexes 4 and 6 were added to WSO (5 mL) and shaken for 2 h at ambient temperature. After that, the mixtures were centrifuged and aqueous layer was separated carefully. The platinum concentration was determined from OSW aliquots taken before ([Pt]OSWb) and after ([Pt]OSWa) partition by ICP-MS (ICP-MS spectrometer 7700x, Agilent) with the obtained values corrected for the adsorption effects. logP = log([Pt]WSO/[Pt]OSWa) equation was used for the partition coefficients calculation; [Pt]WSO = [Pt]OSWb−[Pt]OSWa. The experiments were conducted in triplicate.

Data set [6] in a line: Hydrolytic stability by 1H NMR. The class given is physicochemical. The note with it: 20% DMF-d7/80% D2O, after 48 h.
The mark [7] stands for this setting: 24 h drug exposure, no recovery, MTT, read-out: IC50±SD, A2780.

Like-named read-outs stand apart in the source and are kept apart here.

Broadly, the IC50 is the concentration that inhibits the measured activity by half.

As to `N.N.[Cl][Pt][Cl]` [Cisplatin, cisplatin, reference compound], the concentration for half-maximal inhibition (IC50) in data set [1] was 7.6 µM; in data set [2], 22 µM.

For `Brc1cc[n+]([Pt-2]([I])([I])[n+]2ccc(Br)c3cc[nH]c32)c2[nH]ccc12` [Complex 6, cis-[Pt(4Braza)2I2]], the IC50 amounted to 8200 ± 500 nM in data set [3] (6 h exposure, read-out: IC50, A2780, time-dependent cytotoxicity); 3200 ± 200 nM in data set [3] (setting [7]); 400 ± 100 nM in data set [3] (48 h exposure, read-out: IC50, A2780, time-dependent cytotoxicity); 400 ± 300 nM in data set [4]. Besides, in data set [4], the “selectivity factor IC50(Hep)/IC50(cancer cell line)” value is on record as roughly 10. In addition, the logP entry in data set [5] is on record as “–0.07”. For the same compound, in data set [6], the “fraction of complex hydrolyzed” value is roughly 10%.

Turning to `Cc1cc2c(Cl)cc[n+]([Pt-2]([I])([I])[n+]3ccc(Cl)c4cc(C)[nH]c43)c2[nH]1` [Complex 8, cis-[PtI2(2Me4Claza)2]], in data set [3] (setting [7]), the IC50 was 1700 ± 300 nM. Also, in data set [4], the IC50 stood at 400 ± 200 nM and the “selectivity factor IC50(Hep)/IC50(cancer cell line)” value is recorded as roughly 24.

These data come from article PMC5131915, “Platinum(II) Iodido Complexes of 7-Azaindoles with Significant Antiproliferative Effects: An Old Story Revisited with Unexpected Outcomes” (PLoS ONE, 2016).
